In EP0189853A2, “1,6-Naphthyridin-2(1H)-ones having cardiotonic activity and preparation” (STERLING DRUG INC., priority 1985, dated 1986):

Key:
[1] = test system: guinea pig atria; assay: isolated guinea pig atria and papillary muscle procedure: right atrial force; format: cell-based; conditions: Cavia porcellus, read-out: % Change from Control RAF
From the text: (§1) Detailed descriptions of these test procedures appear in U.S. Patent No. 4,072,746, issued February 7, […].
(§2) Cardiotonic activity in said isolated cat or guinea pig atria and papillary muscle procedure, is indicated by a significant increase, that is, greater than 25% (cat) or 30% (g.pig) in papillary muscle force and a significant increase, that is, greater than 25% (cat) or 30% (g.pig) in right atrial force, with a lower percentage increase (about one-half or less than the percentage increase in right atrial force or papillary muscle force) in right atrial rate. Because of the lower control active tensions of guinea pig tissues, the percent change from control values of both rate and force responses is elevated slightly, i.e., 5%. Thus, whereas cardiotonic activity is ascertained with a papillary muscle force or right atrial force increase of 26% and greater in the cat test, corresponding activity in the guinea pig test is designated with a papillary muscle force (PMr) or right atrial force (RAF) increase of 31% or greater. Representative examples of the compounds of Formulas I and II were tested by said guinea pig atria and papillary muscle procedure with the following results: […]

[2] = test system: papillary muscle; assay: isolated guinea pig atria and papillary muscle procedure: papillary muscle force; format: cell-based; conditions: Cavia porcellus, papillary muscle force, read-out: % Change from Control PMF
From the text: as §1, §2

[3] = test system: anesthetized dog; assay: anesthetized dog procedure: cardiac contractile force; format: in vivo; conditions: administered intravenously
Protocol: as §1
When tested by said anesthetized dog procedure, the said cardiotonically active compounds of formulas I and II at doses of from about 0.030 to 3.0 mg/kg administered intravenously are found to cause significant increases, that is, 25% or greater, in cardiac contractile force or cardiac contractility with lower changes in heart rate and blood pressure. Representative examples of the invention were tested by this procedure and found to cause increases in contractile force as follows: […]

Row | SMILES | activation at 3 µg/mL [1] [%] | activation at 10 µg/mL [1] [%] | activation at 30 µg/mL [1] [%] | activation at 3 µg/mL [2] [%] | activation at 10 µg/mL [2] [%] | activation at 30 µg/mL [2] [%] | % Increase In Contractile Force ([3]; dose 0.100 mg/kg) [%] | activation at 0.3 µg/mL ([1]; dose 0.3 µg/ml) [%] | activation at 1 µg/mL [1] [%] | activation at 0.3 µg/mL ([2]; dose 0.3 µg/ml) [%] | activation at 1 µg/mL [2] [%] | % Increase In Contractile Force ([3]; dose 0.030 mg/kg) [%] | % Increase In Contractile Force ([3]; dose 0.300 mg/kg) [%] | activation at 100 µg/mL [1] [%] | activation at 100 µg/mL [2] [%] | % Increase In Contractile Force ([3]; dose 1.00 mg/kg) [%] | % Increase In Contractile Force ([3]; dose 3.00 mg/kg) [%]
1 | O=c1ccc2c(Br)nccc2[nH]1 [Example 4, 5-bromo-1,6-naphthyridin-2(1H)-one] | 57 | 49 | 134 | 73 | 85 | 110 | 135 |  |  |  |  |  |  |  |  |  | 
2 | O=c1ccc2c(-n3ccnc3)nccc2[nH]1 [Example 6, 5-(lH-imidazol-1-yl)-1,6-naphthyridin-2(lH)-one] | 70 | 68 | 142 | 55 | 90 | 96 |  |  |  |  |  |  |  |  |  |  | 
3 | Cc1cn(-c2nccc3[nH]c(=O)ccc23)cn1 [Example 7, 5-(4-Methyl-1H-imidazol-1-yl)-1,6-naphthyridin-2(1H)-one] | 88 |  |  | 87 |  |  | 96 | 28 | 49 | 53 | 66 | 34 | 124 |  |  |  | 
4 | Cc1nccn1-c1nccc2[nH]c(=O)ccc12 [Example 8, 5-(2-Methyl-1H-imidazol-1-yl)-1,6-naphthyridin-2(lH)-one] |  | 39 | 117 |  | 34 | 69 |  |  |  |  |  |  |  | 221 | 100 |  | 
5 | Cc1ncc([N+](=O)[O-])n1-c1nccc2[nH]c(=O)ccc12 [Example 9, 5-(2-methyl-5-nitro-1H-imidazol-1-yl)-1,6-naphthyridin-2(1H)-one] |  | 15 | 16 |  | 24 | 43 |  |  |  |  |  |  |  | 116 | 103 |  | 
6 | O=c1ccc2c(-n3cccn3)nccc2[nH]1 [Example 10, 5-(1H-pyrazol-1-yl)-1,6-naphthyridin-2(1H)-one] |  | 38 | 102 |  | 43 | 121 |  |  |  |  |  |  |  | 168 | 203 |  | 
7 | O=c1ccc2c(-n3cncn3)nccc2[nH]1 [Example 11, 5-(lH-1,2,4-triazol-1-yl)-1,6-naphthyridin-2(1H)-one] | 28 | 31 | 140 | 51 | 76 | 108 |  |  |  |  |  |  |  |  |  |  | 
8 | Cc1ncn(-c2nccc3[nH]c(=O)ccc23)c1C [Example 12, 5-(4,5-dimethyl-1H-imidazol-1-yl)-1,6-naphthyridin-2(1H)-one] | 7 | 14 | 50 | 13 | 49 | 92 |  |  |  |  |  |  |  |  |  | 54 | 136
9 | O=c1ccc2c(-n3cnc(-c4ccccc4)c3)nccc2[nH]1 [Example 13, 5-(4-phenyl-lH-imidazol-1-yl)-1,6-naphthyridin-2(1H)-one] |  | 33 | 24 |  | 25 | 34 |  |  |  |  |  |  |  | 1 | 36 | 40 | 87
10 | Cc1ccn(-c2nccc3[nH]c(=O)ccc23)n1 [Example 40, 5-(3-Methyl-1H-pyrazol-1-yl)-1,6-naphthyridin-2(lH)-one] | 26 | 89 | 84 | 24 | 64 | 97 |  |  |  |  |  |  |  |  |  |  | 
11 | Cc1ncn(-c2nccc3[nH]c(=O)ccc23)n1 [Example 41, 5-(3-methyl-lH-1,2,4-triazole-1-yl)-1,6-naphthyridin-2(1H)-one] | 37 | 67 |  | 56 | 124 |  |  |  | 29 |  | 36 |  |  |  |  |  | 
12 | O=c1ccc2c(-n3cnc(CO)c3)nccc2[nH]1 [Example 42, 5-[4-(Hydroxymethyl)-1H-imidazol-1-yl]-1,6-naphthyridin-2(lH)-one] | 8 | 37 |  | 48 | 112 |  |  |  | -2 |  | 9 |  |  |  |  |  | 
13 | O=c1ccc2c(-n3cnc(Br)c3)nccc2[nH]1 [Example 43, 5-(4-Bromo-1H-imidazol-1-yl)-1,6-naphthyridin-2(lH)-one] | 43 | 56 |  | 71 | 128 |  |  |  | 35 |  | 47 |  |  |  |  |  | 
14 | O=c1ccc2c(-n3cnc(C(F)(F)F)c3)nccc2[nH]1 [Example 44, 5-[(4-(Trifluoromethyl)-lH-imidazol-1-yl)]-1,6-naphthyridin-2(lH)-one] |  | 35 | 36 |  | 30 | 31 |  |  |  |  |  |  |  | 101 | 69 |  | 
15 | Cc1cc2[nH]c(=O)ccc2c(Br)n1 [Example 46, 5-Bromo-7-methyl-1,6-naphthyridin-2(1H)-one] | 92 | 59 |  | 67 | 114 |  |  |  | 41 |  | 44 |  |  |  |  |  | 
16 | Cc1cn(-c2nc(C)cc3[nH]c(=O)ccc23)cn1 [Example 47, 7-Methyl-5-(4-methyl-1H-imidazol-1-yl)-1,6-naphthyridin-2(lH)-one] | 46 | 158 |  | 48 | 164 |  | 71 |  | 37 |  | 46 |  | 125 |  |  | 183 | 
17 | O=c1ccc2c(-n3cnc([N+](=O)[O-])c3)nccc2[nH]1 [Example 48, 5-(4-nitro-1H-imidazol-1-yl)-1,6-naphthyridin-2(1H)-one] |  | 18 | 42 |  | 37 | 71 |  |  |  |  |  |  |  | 170 | 107 |  | 
